Tests used:
[1] = test system: HEK293 FOP control reporter cell line; assay: HEK293 FOP Assay (FOP control vector luciferase reporter); type: cell-based; conditions: Homo sapiens
Procedure, shortened: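 Compound series 50 μM to 15 nM, 3.16-fold steps, were diluted in CAFTY buffer (pH 7.4, 2 mM Ca2+, 0.01% BSA) and tested alongside the TOP reporter line. Human Wnt-3a was added at 2500–5 ng/ml in two-fold steps. The control HEK293 line stably holds an FOP vector whose TCF elements are randomized and non-functional.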

TNKS1 = molecular target: T1, TNKS1 (Homo sapiens, UniProt O95271); assay: TNKS1 Assay 1 (TNKS1 Histone Ribosylation Assay Kit, biotin-labeled NAD+); type: biochemical; conditions: chemiluminescent readout, 384 well
T1 sequence (O95271 1-1327): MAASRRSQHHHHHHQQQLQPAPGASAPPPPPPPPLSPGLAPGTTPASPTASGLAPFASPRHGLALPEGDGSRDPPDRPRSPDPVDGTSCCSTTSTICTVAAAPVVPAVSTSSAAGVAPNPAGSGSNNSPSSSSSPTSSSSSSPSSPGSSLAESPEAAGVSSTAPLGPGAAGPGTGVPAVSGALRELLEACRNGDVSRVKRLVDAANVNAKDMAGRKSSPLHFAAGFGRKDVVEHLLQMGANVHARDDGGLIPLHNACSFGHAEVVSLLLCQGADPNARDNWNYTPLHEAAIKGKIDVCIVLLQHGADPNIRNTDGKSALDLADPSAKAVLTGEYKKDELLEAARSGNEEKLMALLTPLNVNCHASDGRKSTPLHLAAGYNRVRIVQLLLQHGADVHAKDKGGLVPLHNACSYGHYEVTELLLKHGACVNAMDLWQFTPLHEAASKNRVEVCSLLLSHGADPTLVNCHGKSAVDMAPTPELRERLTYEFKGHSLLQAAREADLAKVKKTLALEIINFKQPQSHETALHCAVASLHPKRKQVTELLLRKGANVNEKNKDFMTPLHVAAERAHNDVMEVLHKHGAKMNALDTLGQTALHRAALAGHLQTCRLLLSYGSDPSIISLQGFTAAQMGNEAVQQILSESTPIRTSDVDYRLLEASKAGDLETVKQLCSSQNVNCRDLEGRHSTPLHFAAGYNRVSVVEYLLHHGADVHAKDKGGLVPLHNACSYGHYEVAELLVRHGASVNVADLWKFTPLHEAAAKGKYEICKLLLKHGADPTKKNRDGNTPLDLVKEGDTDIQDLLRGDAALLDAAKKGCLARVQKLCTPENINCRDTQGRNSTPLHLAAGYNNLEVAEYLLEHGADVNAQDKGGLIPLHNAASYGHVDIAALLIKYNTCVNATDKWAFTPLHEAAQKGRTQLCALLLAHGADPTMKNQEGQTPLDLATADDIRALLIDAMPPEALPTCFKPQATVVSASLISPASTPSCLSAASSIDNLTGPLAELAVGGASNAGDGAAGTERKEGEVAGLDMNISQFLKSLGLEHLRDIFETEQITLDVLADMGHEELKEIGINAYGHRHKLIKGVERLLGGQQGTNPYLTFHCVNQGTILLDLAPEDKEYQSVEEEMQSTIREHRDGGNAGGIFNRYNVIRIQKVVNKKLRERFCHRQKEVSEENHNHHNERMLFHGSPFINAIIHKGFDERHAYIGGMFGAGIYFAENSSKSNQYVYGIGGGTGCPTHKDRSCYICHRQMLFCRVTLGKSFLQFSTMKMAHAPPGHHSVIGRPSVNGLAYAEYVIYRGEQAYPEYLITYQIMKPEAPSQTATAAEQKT
Method: The potency of the compounds according to the invention was assessed by applying an in vitro inhibition assay. The TNKS1 catalyzed NAD^+-dependent ribosylation of a suitable protein substrate was detected using a commercially available biotin/streptavidin binding based assay format [TNKS1 Histone Ribosylation Assay Kit (Biotin-labeled NAD+), Catalog #80579; BPS Bioscience, San Diego, USA]. Here, the incorporation of a biotin-labeled NAD+ during the TNKS1 catalyzed ribosylation reaction was detected with a streptavidin-HRP coupled chemi-luminescent readout. The intensity of the readout signal is proportional to the incorporated NAD^+. Inhibition of TNKS1 leads to a decreased incorporation of NAD^+ and consequently to a lower readout signal intensity. The concentration of a test compound which inhibits the enzyme activity by 50% (corresponds to half of the normed readout signal intensity) is reported as IC50.
The assay was conducted in a 384 well MTP format according to the manufacturer's protocol [bpsbioscience.com/poly-adp-ribose-polymerase/assay-kit/tnks1-histone-ribosylation-assay-kit-biotin-labeled-nad-80579 referencing: Brown, J. A., Marala, R. B. J. Pharmacol. Toxicol. Methods 2002 47:137-41] and using a BMG Pherastar MTP reader [BMG-Labtech, Offenburg, Germany].

[2] = HEK293 FOP control reporter cell line, 16 hours incubation, compound dilution series 50 μM to 15 nM
[3] = HEK293 FOP control reporter cells, 16 hours, luciferase, dilution series from 50 μM

| IC50 (TNKS1; Table 1) | IC50 (TNKS1; first table) | SMILES | IC50 [1, 2] | IC50 [1, 3] |
| --- | --- | --- | --- | --- |
| 1700 nM | 1700 nM | CNC(=O)c1nc[nH]c1C(=O)Nc1ccc(NC(=O)c2ccccc2C)cc1 [Example 19, N^4-methyl-N^5-{4-[(2-methylbenzoyl)amino]phenyl}-1H-imidazole-4,5-dicarboxamide] | 26.5 µM | 11 µM |
| 70 nM | 70 nM | CNC(=O)c1nc[nH]c1C(=O)Nc1ccc(NC(=O)c2ccc(OCCN3CCN(C)CC3)cc2Cl)cc1 [Example 28, N^5-[4-({2-chloro-4-[2-(4-methylpiperazin-1-yl)ethoxy]benzoyl}amino)phenyl]-N^4-methyl-1H-imidazole-4,5-dicarboxamide] | 36 µM | 42 µM |
| 320 nM | 320 nM | CNC(=O)c1nc[nH]c1C(=O)Nc1ccc(NC(=O)c2ccc(F)cc2Cl)c(C)c1 [Example 5, N^5-{4-[(2-chloro-4-fluorobenzoyl)amino]-3-methylphenyl}-N^4-methyl-1H-imidazole-4,5-dicarboxamide] | 11 µM | 11 µM |
| 110 nM | 110 nM | CNC(=O)c1nc[nH]c1C(=O)Nc1ccc(NC(=O)c2ccc(Cl)cc2Cl)cc1 [Example 9, N^5-{4-[(2,4-dichlorobenzoyl)amino]phenyl}-N^4-methyl-1H-imidazole-4,5-dicarboxamide] | 31.5 µM | 40 µM |
| 420 nM | 420 nM | O=C(Nc1ccc(NC(=O)c2[nH]cnc2C(=O)NCc2ccccc2)cc1)c1ccc(F)cc1Cl [Example 18, N^4-benzyl-N^5-{4-[(2-chloro-4-fluorobenzoyl)amino]phenyl}-1H-imidazole-4,5-dicarboxamide] |  | ≥ 50 µM |
| 2270 nM | 2270 nM | CC(NC(=O)c1ncoc1C(=O)Nc1ccc(NC(=O)c2ccc(F)cc2Cl)cc1)c1ccccc1 (stereo not shown) [Example 8, N^5-{4-[(2-chloro-4-fluorobenzoyl)amino]phenyl}-N^4-(1-phenylethyl)-1,3-oxazole-4,5-dicarboxamide] |  | ≥ 50 µM |
| 1010 nM | 1010 nM | CNC(=O)c1nc[nH]c1C(=O)Nc1ccc(NC(=O)c2cccc(Cl)c2Cl)cc1 [Example 1, N^5-{4-[(2,3-dichlorobenzoyl)amino]phenyl}-N^4-methyl-1H-imidazole-4,5-dicarboxamide] | 24 µM | 25 µM |
| 100 nM | 100 nM | CNC(=O)c1nc[nH]c1C(=O)Nc1ccc(NC(=O)c2ccccc2Cl)cc1 [Example 27, N^5-{4-[(2-chlorobenzoyl)amino]phenyl}-N^4-methyl-1H-imidazole-4,5-dicarboxamide] |  | ≥ 50 µM |
| > 100000 nM |  | CNC(=O)c1nc[nH]c1C(=O)Nc1ccc(NC(=O)c2ccc(N3CCCC3)cc2F)cc1 [Example 3, N^5-(4-{[2-fluoro-4-(pyrrolidin-1-yl)benzoyl]amino}phenyl)-N^4-methyl-1H-imidazole-4,5-dicarboxamide] |  | ≥ 50 µM |
| > 100000 nM |  | CNC(=O)c1[nH]cnc1C(=O)Nc1ccc(NC(=O)c2cc(Cl)sc2Cl)cc1 [Example 213, N^4-(4-{[(2,5-dichloro-3-thienyl)carbonyl]amino}phenyl)-N^5-methyl-1H-imidazole-4,5-dicarboxamide] | 8.4 µM |  |
| > 100000 nM | ≥ 100000 nM | CNC(=O)c1nc[nH]c1C(=O)Nc1ccc(NC(=O)c2c(-c3ccccc3)nn(C)c2Cl)cc1 [Example 17, N^5-(4-{[(5-chloro-1-methyl-3-phenyl-1H-pyrazol-4-yl)carbonyl]amino}phenyl)-N^4-methyl-1H-imidazole-4,5-dicarboxamide] | 26 µM | 26 µM |
| 310 nM | 310 nM | CC(C)NC(=O)c1nc[nH]c1C(=O)Nc1ccc(NC(=O)c2ccc(F)cc2Cl)cc1 [Example 10, N^5-{4-[(2-chloro-4-fluorobenzoyl)amino]phenyl}-N^4-isopropyl-1H-imidazole-4,5-dicarboxamide] | 46 µM | ≥ 50 µM |
| 50 nM | 50 nM | CNC(=O)c1nc[nH]c1C(=O)Nc1ccc(NC(=O)c2ccncc2Cl)cc1 [Example 6, N^5-{4-[(3-chloroisonicotinoyl)amino]phenyl}-N^4-methyl-1H-imidazole-4,5-dicarboxamide] |  | ≥ 50 µM |
| 120 nM | 120 nM | CNC(=O)c1nc[nH]c1C(=O)Nc1ccc(NC(=O)c2ccc(N(C)C)cc2Cl)cc1 [Example 4, N^5-(4-{[2-chloro-4-(dimethylamino)benzoyl]amino}phenyl)-N^4-methyl-1H-imidazole-4,5-dicarboxamide] | 42 µM | 42 µM |
| 1300 nM | 1300 nM | CCC(C)NC(=O)c1ncoc1C(=O)Nc1ccc(NC(=O)c2ccc(F)cc2Cl)cc1 (stereo not shown) [Example 7, N^4-sec-butyl-N^5-{4-[(2-chloro-4-fluorobenzoyl)amino]phenyl}-1,3-oxazole-4,5-dicarboxamide] | 45 µM | 45 µM |
| 420 nM | 420 nM | COC(=O)c1ncoc1C(=O)Nc1ccc(NC(=O)c2ccc(F)cc2Cl)cc1 [Example 14, Methyl 5-({4-[(2-chloro-4-fluorobenzoyl)amino]phenyl}carbamoyl)-1,3-oxazole-4-carboxylate] |  | ≥ 50 µM |
| 900 nM | 900 nM | CC(C)NC(=O)c1ncoc1C(=O)Nc1ccc(NC(=O)c2ccc(F)cc2Cl)cc1 [Example 15, N^5-{4-[(2-chloro-4-fluorobenzoyl)amino]phenyl}-N^4-isopropyl-1,3-oxazole-4,5-dicarboxamide] |  | ≥ 50 µM |
| 280 nM | 280 nM | CN(C)C(=O)c1nc[nH]c1C(=O)Nc1ccc(NC(=O)c2ccc(F)cc2Cl)cc1 [Example 24, N^5-{4-[(2-chloro-4-fluorobenzoyl)amino]phenyl}-N^4,N^4-dimethyl-1H-imidazole-4,5-dicarboxamide] |  | ≥ 50 µM |
| 220 nM |  | CNC(=O)c1ncoc1C(=O)Nc1ccc(NC(=O)c2ccc(F)cc2Cl)cc1 [Example 11, N^5-{4-[(2-chloro-4-fluorobenzoyl)amino]phenyl}-N^4-methyl-1,3-oxazole-4,5-dicarboxamide] |  | ≥ 50 µM |
| 1700 nM | 1700 nM | CNC(=O)c1nc[nH]c1C(=O)Nc1ccc(NC(=O)c2ccc(F)cc2)cc1 [Example 20, N^5-{4-[(4-fluorobenzoyl)amino]phenyl}-N^4-methyl-1H-imidazole-4,5-dicarboxamide] | 40.5 µM | 31 µM |
| 410 nM | 400 nM | CNC(=O)c1nc[nH]c1C(=O)Nc1ccc(NC(=O)c2c(Cl)cccc2Cl)cc1 [Example 26, N^5-{4-[(2,6-dichlorobenzoyl)amino]phenyl}-N^4-methyl-1H-imidazole-4,5-dicarboxamide] |  | ≥ 50 µM |

Source: patent publication US9884063B2, “Amido-substituted azole compounds” (Bayer Pharma Aktiengesellschaft, priority 2014, dated 2018)
